# Tests used:
# Aβtotal = assay: Screening for γ-secretase-modulating activity: Aβtotal in supernatant of SKNBE2 cells carrying hAPP 695 wild type (Alphalisa); type: cell-based, human; conditions: overnight incubation, Alphalisa on supernatant
# Procedure, shortened: (§1)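 Secreted Aβ42 (C-terminal/N-terminal antibody pair) and Aβtotal (N-terminal/mid-region pair) were quantified by AlphaLISA after overnight compound exposure of wild-type hAPP 695 SKNBE2 cells at 37 °C. Values expressed relative to compound-free maximum, with IC50 from nonlinear 4-parameter regression.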
# Aβ42 = assay: Screening for γ-secretase-modulating activity: Aβ42 in supernatant of SKNBE2 cells carrying hAPP 695 wild type (Alphalisa); type: cell-based, human; conditions: overnight incubation, Alphalisa on supernatant
# Procedure, shortened: as §1
# [1] = Homo sapiens, SKNBE2, SKNBE2 human neuroblastoma cells carrying hAPP 695 wild type
# [2] = SKNBE2 human neuroblastoma cells carrying hAPP 695 wild type
SMILES,IC50 (Aβtotal; [1]) [nM],melting point [°C],IC50 (Aβ42; [1]) [nM],IC50 (Aβ42; [2]) [nM],IC50 (Aβtotal; [2]) [nM]
"N#Cc1ccc2[nH]c(-c3nc4n(n3)CCCC4c3cc(C(F)(F)F)ccc3F)cc2c1 (stereo not drawn) [Compound 21, 2-[8-[2-fluoro-5-(trifluoromethyl)phenyl]-5,6,7,8-tetrahydro[1,2,4]triazolo[1,5-a]pyridin-2-yl]-1H-indole-5-carbonitrile]",> 10000,184.3,355,–,–
"N#Cc1ccc2[nH]c(-c3nc4n(n3)CCCC4c3ccc(F)cc3C(F)(F)F)cc2c1 (stereo not drawn) [Compound 22, 2-[8-[4-fluoro-2-(trifluoromethyl)phenyl]-5,6,7,8-tetrahydro[1,2,4]triazolo[1,5-a]pyridin-2-yl]-1H-indole-5-carbonitrile]",> 10000,265,138,–,–
"Cc1ccccc1C1CCCn2nc(-c3cc4nc(C#N)ccc4[nH]3)nc21 (stereo not drawn) [Compound 25, 2-[5,6,7,8-tetrahydro-8-(2-methylphenyl)[1,2,4]triazolo[1,5-a]pyridin-2-yl]-1H-pyrrolo[3,2-b]pyridine-5-carbonitrile]",> 10000,264.9,398,–,–
"N#Cc1ccc2[nH]c(-c3nc4n(n3)CCCC4c3ccccc3C(F)(F)F)cc2n1 (stereo not drawn) [Compound 26, 2-[5,6,7,8-tetrahydro-8-[2-(trifluoromethyl)phenyl][1,2,4]triazolo[1,5-a]pyridin-2-yl]-1H-pyrrolo[3,2-b]pyridine-5-carbonitrile]",> 10000,272.3,331,–,–
"COc1ccc2[nH]c(-c3nc4n(n3)CCCC4c3ccccc3C(F)(F)F)cc2c1 (stereo not drawn) [Compound 29, 5,6,7,8-tetrahydro-2-(5-methoxy-1H-indol-2-yl)-8-[2-(trifluoromethyl)phenyl]-[1,2,4]triazolo[1,5-a]pyridine]",> 15100,183,4790,–,–
"Cc1ccccc1C1CCCn2nc(-c3cc4cc(-c5cnn(C)c5)ccc4[nH]3)nc21 (stereo not drawn) [Compound 31, 5,6,7,8-tetrahydro-8-(2-methylphenyl)-2-[5-(1-methyl-1H-pyrazol-4-yl)-1H-indol-2-yl]-[1,2,4]triazolo[1,5-a]pyridine]",> 10000,223.8,76,–,–
"Cc1cc(F)ccc1C1CCCn2nc(-c3cc4nc(-c5cnn(C)c5)ccc4[nH]3)nc21 (stereo not drawn) [Compound 32, 8-(4-fluoro-2-methylphenyl)-5,6,7,8-tetrahydro-2-[5-(1-methyl-1H-pyrazol-4-yl)-1H-pyrrolo[3,2-b]pyridin-2-yl]-[1,2,4]triazolo[1,5-a]pyridine]",> 10000,281.7,–,148,–
"Cc1cc(-c2ccc3[nH]c(-c4nc5n(n4)CCCC5c4ccc(F)cc4C)cc3n2)ccn1 (stereo not drawn) [Compound 33, 8-(4-fluoro-2-methylphenyl)-5,6,7,8-tetrahydro-2-[5-(2-methyl-4-pyridinyl)-1H-pyrrolo[3,2-b]pyridin-2-yl]-[1,2,4]triazolo[1,5-a]pyridine]",> 10000,267.2,49,–,–
"Cc1cn(-c2ccc3[nH]c(-c4nc5n(n4)CCOC5c4cccc(F)c4C)cc3c2)cn1 (stereo not drawn) [Compound 36, 8-(3-fluoro-2-methylphenyl)-5,6-dihydro-2-[5-(4-methyl-1H-imidazol-1-yl)-1H-indol-2-yl]-8H-[1,2,4]triazolo[5,1-c][1,4]oxazine]",> 10000,261.3,62,–,–
"N#Cc1ccc2[nH]c(-c3nc4n(n3)CCCC4c3ccccc3C(F)(F)F)nc2c1 (stereo not drawn) [Compound 38, 2-[5,6,7,8-tetrahydro-8-[2-(trifluoromethyl)phenyl][1,2,4]triazolo[1,5-a]pyridin-2-yl]-1H-benzimidazole-5-carbonitrile]",> 10000,252.2,871,–,–
"COc1c(C#N)ccc2[nH]c(-c3cn4c(n3)C(c3ccc(F)cc3C)OCC4)cc12 (stereo not drawn) [Compound 48, 2-[8-(4-fluoro-2-methylphenyl)-5,6-dihydro-8H-imidazo[2,1-c][1,4]oxazin-2-yl]-4-methoxy-1H-indole-5-carbonitrile]",–,244.4,–,1020,> 10000
